Measured values reported in patent publication US20110300198A1, “HYDROCOLLOID - ESSENTIAL OIL PATCHES” (priority 2010, published 2011).

Legend:
[1] = Preliminary in-vivo experiment, constituents in urine (GC); conditions: male, Sprague-Dawley, rat, 7.5 % lavender essential oil in almond oil, collected urine sample, 84 h after the simulated massage
From the text: Male Sprague-Dawley rats, weighing 300-350 g, were used in the studies (Harlan, Rehovot, Israel). The experimental protocols were approved by the Hebrew University of Jerusalem Committee on the Use and Care of Animals. Rats were maintained under specified-pathogen-free (SPF) conditions and were allowed to acclimate to the environment for at least 7 days before their use in the study. Rats were anesthetized and the fur on their stomach shaved prior to exposure. […] Each rat was housed in an individual cage in order to prevent oral contamination of the essential oil by one rat eating another's patch. Blood samples (0.5 ml) were taken at 0, 12, 24, 36, 48 and 60 h from a nick at the tip of tail to determine contents of essential-oil components. Rats were restrained and the tail was gently massaged to facilitate blood collection. […] Urine samples were similarly analyzed by gas chromatography (GC).
Similar values of camphor (FIG. 17) were detected following application of a lavender oil patch on the back and abdomen. […] In the blood of rats with an abdomen-adhered patch, more linalyl acetate was detected than in the blood of rats with a back patch. […] In a collected urine sample, 0.01265 mg L^−1 linalool and 0.00903 mg L^−1 linalyl acetate were detected. […] In addition, no traces of camphor were detected in the urine (note that the urine analysis was performed 84 h after the simulated massage).

[2] = Extraction of lavender essential oil constituents from the skin after patch application; type: in vivo; conditions: male, Sprague-Dawley, rat, 7.5 % lavender oil in patch, skin under 7.5% lavender oil patch, removed after 60 h, read-out: Concentration extracted from the skin
From the text: Male Sprague-Dawley rats, weighing 300-350 g, were used in the studies (Harlan, Rehovot, Israel). The experimental protocols were approved by the Hebrew University of Jerusalem Committee on the Use and Care of Animals. Rats were maintained under specified-pathogen-free (SPF) conditions and were allowed to acclimate to the environment for at least 7 days before their use in the study. Rats were anesthetized and the fur on their stomach shaved prior to exposure. Gum karaya patches with and without lavender essential oil were applied to the rat's stomach skin. Each rat was housed in an individual cage in order to prevent oral contamination of the essential oil by one rat eating another's patch. Blood samples (0.5 ml) were taken at 0, 12, 24, 36, 48 and 60 h from a nick at the tip of tail to determine contents of essential-oil components. Rats were restrained and the tail was gently massaged to facilitate blood collection. Blood samples were collected in vials containing 0.1 ml heparin (100 kU, Sigma). […] Urine samples were similarly analyzed by gas chromatography (GC).
Skin to which patches with or without lavender essential oil were adhered were sampled for extraction. […] When a control patch was adhered to the skin, no constituents of lavender essential oil were detected. […]

[3] = cited from earlier work
[4] = In-vivo experiment with HP-5 column, constituents in blood; parameters: species or system rat
From the text: Male Sprague-Dawley rats, weighing 300-350 g, were used in the studies (Harlan, Rehovot, Israel). The experimental protocols were approved by the Hebrew University of Jerusalem Committee on the Use and Care of Animals. Rats were maintained under specified-pathogen-free (SPF) conditions and were allowed to acclimate to the environment for at least 7 days before their use in the study. Rats were anesthetized and the fur on their stomach shaved prior to exposure. Gum karaya patches with and without lavender essential oil were applied to the rat's stomach skin. Each rat was housed in an individual cage in order to prevent oral contamination of the essential oil by one rat eating another's patch. Blood samples (0.5 ml) were taken at 0, 12, 24, 36, 48 and 60 h from a nick at the tip of tail to determine contents of essential-oil components. Rats were restrained and the tail was gently massaged to facilitate blood collection. Blood samples were collected in vials containing 0.1 ml heparin (100 kU, Sigma). A 10-μl volume of aqueous linalyl isovalerate stock solution was added as an internal standard to each blood sample and samples were stored at −80° C. After 60 h, patches were removed and the application site was wiped with 70% alcohol. Animals were sacrificed and the patch of stomach skin to which the essential oil patch had been applied was removed and minced into small pieces. The skin pieces were placed in 1 ml of ethanol containing linalyl isovalerate as the internal standard and sonicated for 30 min after heating to 50° C. A 10-μl aliquot was then injected straight into the gas chromatograph. A urine sample (0.5 ml) was obtained from the bladder immediately after sacrifice. Urine samples were similarly analyzed by gas chromatography (GC).
Blood (0.5 ml) or phosphate buffer (0.5 ml) was collected at t=0, 12, 24, 36, 48 and 60 h. Blood samples were placed in Eppendorf heparin-coated glass vials (Agilent) by heparin-washed syringe, which were sealed with septa and screw caps. Each vial contained 100 μl of heparin and blood samples were frozen at −80° C. for storage. Prior to analysis, the blood or phosphate buffer was thawed to room temperature, a 10-μl volume of internal standards (6.5 mg linalyl isovalerate and 6.5 mg geranyl formate in 25 ml acetonitrile) was added to the vial and then the mixture was vortexed. The vials were tightly capped using a clear cap with septum. The septa were pre-punctured immediately before analysis using a needle to facilitate the insertion of the fiber sheath. The fiber sheath was inserted through the septum, and positioned to expose the fiber in the center of the headspace. The vial was placed on a heating block to maintain temperature at a constant 50° C. and the solid-phase microextraction (SPME) assembly was clamped securely. Absorption time was 30 min. No stirring was required. After absorption, the SPME fiber sheath was immediately transferred to the GC injector for desorption for 5 min and GC analysis.
GC was performed on an Agilent 7890A gas chromatograph equipped with a split/splitless capillary injector, flame ionization detection (FID) system and GC Chem Station (Version B.03.01; Agilent Technologies 2007). Chromatography was carried out on a WAX or HP-5 column (30 m×0.32 mm×0.25 μm). The GC operating conditions were: splitless or split 1:40 injector 240° C., oven 50° C. for 1 min and then 10° C. min^−1 to 160° C., then 25° C. min^−1 to 240° C. and held for 6 min; the carrier gas was hydrogen.
In this experiment, patches containing lavender essential oil were adhered to the abdomen area. Patches without essential oil served as blanks. […] Detection under splitless conditions facilitated the detection of linalyl acetate, linalool, camphor, borneol and α-terpineol, the latter two being additional constituents detected only under these conditions. High concentrations of linalool, borneol and camphor were detected, in comparison to low levels of terpeneol and linalyl acetate. […]

[5] = cited from earlier work; remark: listed apart in the source
[6] = male, Sprague-Dawley, rat, in vivo

concentration at 84 h ([1]; topical)	concentration at 60 h ([2]; skin (ethanol extract of the application site), topical)	Concentration observed in the blood [4, 6]	Highest value in blood [4, 6]	concentration at 60 h [4, 6]	SMILES	Solubility in water [3]	Log P [5]	concentration at 84 h ([1]; in vivo)	concentration at 60 h ([2]; in vivo, ethanol extract)	Concentration observed in the blood ([4]; quoted for comparison with the skin extract)
12.7 ng/mL	62 ng/mL	99 ng/mL	0.099 mg/L	53 ng/mL	C=CC(C)(O)CCC=C(C)C (stereo not drawn) [Linalool]	relatively high	about 3			
					C=CC(C)(CCC=C(C)C)OC(C)=O (stereo not drawn) [Linalyl acetate]	relatively low	about 4	9.03 ng/mL	241 ng/mL	9 ng/mL
